Measurements reported in the NIST ThermoML archive (doi:10.1016/j.fluid.2018.10.024).

Columns and labels:
[1] = xn = mol fraction of the nth substance listed; conditions: 101 kPa, Liquid; for viscosity: Capillary tube (Ostwald / Ubbelohde) method; for mass density: Vibrating tube method
[2] = refractive index (Na D-line) (dimensionless); xn = mol fraction of the nth substance listed; conditions: 101 kPa, Liquid, Standard Abbe refractometry

ClC(Cl)Cl [trichloromethane] + CO
Conditions	mass density, [1] [kg/m3]	refractive index, [2]	viscosity, [1] [mPa·s]
298.15 K, x2 = 0	1478.75	1.4422	0.5916
298.15 K, x2 = 0.0999	1443.84	1.4379	0.6213
298.15 K, x2 = 0.2012	1403.84	1.4312	0.6437
298.15 K, x2 = 0.3015	1358.87	1.4217	0.6585
298.15 K, x2 = 0.3991	1309.46	1.4115	0.6642
298.15 K, x2 = 0.502	1250.29	1.4018	0.6635
298.15 K, x2 = 0.5998	1186.04	1.3903	0.6552
298.15 K, x2 = 0.7012	1108.93	1.3789	0.6385
298.15 K, x2 = 0.7998	1020.91	1.3649	0.6182
298.15 K, x2 = 0.9001	914.54	1.3485	0.5812
303.15 K, x2 = 0	1469.16	1.4397	0.558
303.15 K, x2 = 0.0999	1434	1.4327	0.5797
303.15 K, x2 = 0.2012	1394.48	1.4257	0.5937
303.15 K, x2 = 0.3015	1350.17	1.4171	0.6053
303.15 K, x2 = 0.3991	1301.28	1.4084	0.6038
303.15 K, x2 = 0.502	1242.63	1.3979	0.6028
303.15 K, x2 = 0.5998	1178.79	1.3881	0.5919
303.15 K, x2 = 0.7012	1102.19	1.377	0.5796
303.15 K, x2 = 0.7998	1014.72	1.3633	0.5571
303.15 K, x2 = 0.9001	909	1.3467	0.533
308.15 K, x2 = 0	1460.01	1.4356	0.5333
308.15 K, x2 = 0.0999	1424.97	1.4289	0.5525
308.15 K, x2 = 0.2012	1385.67	1.4212	0.5656
308.15 K, x2 = 0.3015	1341.86	1.4116	0.5743
308.15 K, x2 = 0.3991	1293.54	1.4031	0.5766
308.15 K, x2 = 0.502	1235.37	1.3953	0.5716
308.15 K, x2 = 0.5998	1171.85	1.3856	0.5627
308.15 K, x2 = 0.7012	1095.59	1.3729	0.5487
308.15 K, x2 = 0.7998	1008.7	–	0.5267
308.15 K, x2 = 0.9001	903.73	1.3443	0.5044
313.15 K, x2 = 0	1450.39	1.4338	0.5072
313.15 K, x2 = 0.0999	1415.61	1.427	0.5241
313.15 K, x2 = 0.2012	1376.61	1.4211	0.5355
313.15 K, x2 = 0.3015	1333.14	1.4127	0.5429
313.15 K, x2 = 0.3991	1285.19	1.4049	0.5434
313.15 K, x2 = 0.502	1227.45	1.3943	0.5403
313.15 K, x2 = 0.5998	1164.4	1.3839	0.5264
313.15 K, x2 = 0.7012	1088.7	1.3722	0.5134
313.15 K, x2 = 0.7998	1002.44	1.3592	0.4924
313.15 K, x2 = 0.9001	898.23	–	0.4713
318.15 K, x2 = 0	1440.03	1.4297	0.4849
318.15 K, x2 = 0.0999	1405.51	1.4201	0.4991
318.15 K, x2 = 0.2012	1366.88	1.4174	0.5108
318.15 K, x2 = 0.3015	1323.78	1.4093	0.5144
318.15 K, x2 = 0.3991	1276.2	1.4023	0.5142
318.15 K, x2 = 0.502	1218.91	1.3927	0.5108
318.15 K, x2 = 0.5998	1156.37	1.3817	0.4976
318.15 K, x2 = 0.7012	1081.29	1.3719	0.483
318.15 K, x2 = 0.7998	995.73	1.3576	0.4655
318.15 K, x2 = 0.9001	892.36	1.3406	0.4426

ClC(Cl)Cl [trichloromethane] + CC(C)=O
Conditions	mass density, [1] [kg/m3]	refractive index, [2]	viscosity, [1] [mPa·s]
298.15 K, x2 = 0	1478.75	1.4422	0.5916
298.15 K, x2 = 0.0997	1419.64	1.4342	0.589
298.15 K, x2 = 0.1996	1357.58	1.4262	0.5814
298.15 K, x2 = 0.2993	1293.35	1.4192	0.5684
298.15 K, x2 = 0.3999	1226.35	1.4112	0.5412
298.15 K, x2 = 0.4979	1159.27	1.4029	0.5126
298.15 K, x2 = 0.599	1088.31	1.3941	0.4741
298.15 K, x2 = 0.6993	1016.22	1.3851	0.435
298.15 K, x2 = 0.8008	941.27	1.377	0.3975
298.15 K, x2 = 0.9006	864.78	1.3676	0.3443
303.15 K, x2 = 0	1469.16	1.4397	0.558
303.15 K, x2 = 0.0997	1409.35	1.4309	0.5571
303.15 K, x2 = 0.1996	1347.6	1.4252	0.5571
303.15 K, x2 = 0.2993	1284.12	1.418	0.5373
303.15 K, x2 = 0.3999	1217.87	1.4105	0.5156
303.15 K, x2 = 0.4979	1151.19	1.4019	0.4913
303.15 K, x2 = 0.599	1080.44	1.3924	0.4551
303.15 K, x2 = 0.6993	1008.68	1.3841	0.4188
303.15 K, x2 = 0.8008	934.43	1.3744	0.3802
303.15 K, x2 = 0.9006	858.83	1.3656	0.338
308.15 K, x2 = 0	1460.01	1.4356	0.5333
308.15 K, x2 = 0.0997	1402.33	1.4281	0.5329
308.15 K, x2 = 0.1996	1341.01	1.4215	0.5303
308.15 K, x2 = 0.2993	1276.96	1.4141	0.5185
308.15 K, x2 = 0.3999	1210.11	1.4055	0.4968
308.15 K, x2 = 0.4979	1143.34	1.3968	0.4693
308.15 K, x2 = 0.599	1073.05	1.3875	0.4396
308.15 K, x2 = 0.6993	1001.9	1.3791	0.4028
308.15 K, x2 = 0.8008	927.99	1.3702	0.3593
308.15 K, x2 = 0.9006	852.47	1.3601	0.3254
313.15 K, x2 = 0	1450.39	1.4338	0.5072
313.15 K, x2 = 0.0997	1393.77	1.4276	0.5067
313.15 K, x2 = 0.1996	1332.05	1.4202	0.4994
313.15 K, x2 = 0.2993	1268.04	1.4128	0.4876
313.15 K, x2 = 0.3999	1201.58	1.4048	0.468
313.15 K, x2 = 0.4979	1135.08	1.3965	0.4429
313.15 K, x2 = 0.599	1064.85	1.3873	0.4149
313.15 K, x2 = 0.6993	993.86	1.3787	0.383
313.15 K, x2 = 0.8008	920.68	1.3682	0.3453
313.15 K, x2 = 0.9006	846.27	1.3599	0.3056
318.15 K, x2 = 0	1440.03	1.4297	0.4849
318.15 K, x2 = 0.0997	1383.86	1.4244	0.4834
318.15 K, x2 = 0.1996	1322.43	1.4175	0.4798
318.15 K, x2 = 0.2993	1258.8	1.4094	0.4684
318.15 K, x2 = 0.3999	1192.83	1.4008	0.4483
318.15 K, x2 = 0.4979	1126.82	1.3929	0.4207
318.15 K, x2 = 0.599	1057.03	1.3839	0.389
318.15 K, x2 = 0.6993	986.42	1.3754	0.3583
318.15 K, x2 = 0.8008	913.61	1.365	0.3261
318.15 K, x2 = 0.9006	839.75	1.3548	0.2862
